Data as given in US20240217997A1 (priority 2021, published 2024).
≈ marks a conversion by molar mass, not a printed value. Read-outs that look alike come from different tables or passages of the source.

Columns and labels:
P. falciparum DXR = P. falciparum DXR (Plasmodium falciparum, UniProt Q8IKG4); conditions: cited from earlier work
[1] = tested on: Mycobacterium tuberculosis; assay: microbe, parasite or virus in culture
Plasmodium falciparum = Plasmodium falciparum minimum inhibitory concentration (MIC), Table 4; format: cell-based

P. falciparum DXR, sequence (Q8IKG4 73-488): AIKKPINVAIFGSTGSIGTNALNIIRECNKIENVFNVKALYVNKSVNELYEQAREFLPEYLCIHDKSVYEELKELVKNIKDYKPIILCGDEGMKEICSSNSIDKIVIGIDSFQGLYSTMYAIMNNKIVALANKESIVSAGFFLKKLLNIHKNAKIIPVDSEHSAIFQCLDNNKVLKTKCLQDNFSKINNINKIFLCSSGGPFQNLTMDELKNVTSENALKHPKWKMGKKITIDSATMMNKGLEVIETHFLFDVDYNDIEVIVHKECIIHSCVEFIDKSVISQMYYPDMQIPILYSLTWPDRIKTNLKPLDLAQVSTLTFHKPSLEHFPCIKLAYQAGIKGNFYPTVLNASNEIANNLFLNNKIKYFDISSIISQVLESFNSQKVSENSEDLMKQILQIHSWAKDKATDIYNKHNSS

SMILES: CC(=O)N(O)CCCP(=O)(O)O [FR900098]
- IC50 (P. falciparum DXR): 24 nM

SMILES: NNC(=O)c1ccncc1 [Isoniazid]
- MIC ([1]; 168 h, read-out: 1-week MIC 7H9/glucose/BSA/Tx): 0.02 µg/mL (≈ 0.146 µM)
- MIC ([1]; 168 h, read-out: 1-week MIC 7H9/glucose/casitone/Tx): 0.02 µg/mL (≈ 0.146 µM)
- MIC ([1]; 168 h, read-out: 1-week MIC 7H9/glycerol/glucose/BSA/Tween): 0.03 µg/mL (≈ 0.219 µM)
- MIC ([1]; 336 h, read-out: 2-week MIC 7H9/glucose/BSA/Tx): 0.03 µg/mL (≈ 0.219 µM)
- MIC ([1]; 336 h, read-out: 2-week MIC 7H9/glucose/casitone/Tx): 0.02 µg/mL (≈ 0.146 µM)
- MIC ([1]; 336 h, read-out: 2-week MIC 7H9/glycerol/glucose/BSA/Tween): 0.039 µg/mL (≈ 0.284 µM)

SMILES: O=CN(O)CCCP(=O)(O)O [Fosmidomycin]
- MIC, Mean (Plasmodium falciparum; Mean of Runs 1-3): 0.9075 µg/mL (≈ 4.96 µM)
- MIC, Run 1 (Plasmodium falciparum; Run 1): 1.391 µg/mL (≈ 7.6 µM)
- MIC, Run 2 (Plasmodium falciparum; Run 2): 0.7607 µg/mL (≈ 4.15 µM)
- MIC, Run 3 (Plasmodium falciparum; Run 3): 0.5708 µg/mL (≈ 3.12 µM)
